In brackets after ≈: the same amount, converted by molar mass.
Assays:
[1] = system: W3110/pdapA1 strain; assay: Growth of W3110/pdapA1 on M9 media containing AEC; assay type: cell-based, E. coli
Description: (§1) A transformed strain obtained by introducing pdapA1 into a wild type E. coli W3110 strain (available from National Institute of Genetics (Mishima-shi, Shizuoka-ken, Japan)) was designated as W3110/pdapA1, and a transformed strain obtained by introducing pdapA2 into the E. coli W3110 strain was designated as W3110/pdapA2, respectively. These two transformed strains were cultivated respectively in a minimal medium M9 having the following composition to which AEC as an analog of lysine was added. The W3110 strain with no introduced plasmid was also cultivated in the same medium as a control.
(§2) The W3110/pdapA1 strain and the W3110/pdapA2 strain obtained as described above were cultivated on M9 agar plate media containing various concentrations of AEC, respectively. Growth inhibitory concentrations by AEC were examined, and a selection condition was investigated for a strain harboring a plasmid containing dapA*.
(§3) In this table, + indicates growth of transformant, and - indicates no growth.

[2] = system: W3110/pdapA2 strain; assay: Growth of W3110/pdapA2 on M9 media containing AEC; assay type: cell-based, E. coli; conditions: for Growth of W3110/pdapA2: M9 agar
Description: as §1, §2, §3

[3] = system: GT3/pLYSC1 strain; assay: Growth of GT3/pLYSC1 on M9 media containing L-lysine or AEC; assay type: cell-based, E. coli; conditions: for MIC: Escherichia coli, GT3, read-out: Allotment of addition in which growth was completely suppressed; for Growth of GT3/pLYSC1: M9 agar
Description: (§4) A transformed strain obtained by introducing pLYSC1 into the AK completely deficient strain, E. coli GT3 was designated as GT3/pLYSC1, and a transformed strain obtained by introducing pLYSC2 into the E. coli GT3 was designated as GT3/pLYSC2. A considerable amount of L-lysine was added to the minimal medium M9, and the GT3/pLYSC1 strain and the GT3/pLYSC2 strain were each cultivated. Both of the GT3/pLYSC1 strain and the GT3/pLYSC2 strain harbor plasmids containing the wild type lysC, in which AKIII encoded by lysC on the plasmids is a sole AK. The wild type AKIII as the sole AK is inhibited by L-lysine in the presence of a considerable amount of L-lysine.
(§5) The GT3/pLYSC1 strain and the GT3/pLYSC2 strain were cultivated on M9 agar plate media containing various concentrations of L-lysine or AEC, respectively. Growth inhibitory concentrations by L-lysine and AEC were examined, and a selection condition was investigated for a strain harboring a plasmid containing lysC*.
(§6) In this table, + indicates growth of transformant, ± indicates a little growth, and - indicates no growth.

[4] = system: GT3/pLYSC2 strain; assay: Growth of GT3/pLYSC2 on M9 media containing L-lysine or AEC; assay type: cell-based, E. coli; conditions: for Allotment of addition up to which growth was not suppressed: GT3/pLYSC2 strain; for Allotment of addition up to which growth was not suppressed / Growth of GT3/pLYSC2: M9 agar
Description: as §4, §5, §6

[5] = system: W3110 strain; assay: Growth of W3110 strain with no plasmid in minimal medium M9 with AEC; assay type: cell-based, E. coli; conditions: W3110 strain having no plasmid
Description: as §1

[6] = biological target: T1, AKIII (Escherichia coli, UniProt P08660); assay: Enzyme activity of AKIII and inhibition by L-lysine (cell-free extract); assay type: biochemical, E. coli
T1 construct: made in house; host or cells: E. coli GT3 (AKI, II, III deficient) transformed with pLYSC1 or its mutant plasmids; cell-free extract, ammonium sulfate pellet redissolved
Text: (§7) No. 24, No. 43, No. 48, No. 60, No. 80, No. 117, No. 126, No. 149, No. 150, No. 156, No. 158, No. 167, No. 169 and No. 172 were selected as representative strains of the aforementioned 14 groups. Mutant plasmids derived from pLYSC1 were recovered from each of them, and designated as pLYSC1*24, pLYSC1*43, pLYSC1*48, pLYSC1*60, pLYSC1*80, pLYSC1*117, pLYSC1*126, pLYSC1*149, pLYSC1*150, pLYSC1*156, pLYSC1*158, pLYSC1*167, pLYSC1*169 and pLYSC1*172, respectively. An AK completely deficient strain GT3 was transformed with them and the wild type pLYSC1. A cell-free extract was prepared from each of transformed strains, and the enzyme activity of AKIII was measured.
(§8) The cell-free extract (crude enzyme solution) was prepared as follows. A transformed strain was cultivated in a 2 x TY medium, and collected at an OD660 of about 0.8. Cells were washed with 0.02 M KH2 PO4 (pH 6.75)-0.03 M β-mercaptoethanol under a condition of 0° C., and the cells were disrupted by sonication (0° C., 100 W, 30 minutes×4). A disrupted cell solution was centrifuged at 33 krpm for 1 hour under a condition of 0° C. to obtain a supernatant to which ammonium sulfate was added to give 80% saturation. After centrifugation, a pellet was dissolved in 0.02 M KH2 PO4 (pH 6.75)-0.03 M β-mercaptoethanol, and stored at 0° C. overnight.
(§9) The enzyme activity of AKIII was measured in accordance with a method of Stadtman et al. (Stadtman, E. R., Cohen, G. N., LeBras, G., and Robichon-Szulmajster, H., J. Biol. Chem., 236, 2033 (1961)). Namely, a reaction solution having the following composition was incubated at 27° C. for 45 minutes, and an FeCl3 solution (2.8 N HCl 0.4 ml+12% TCA 0.4 ml+5% FeCl3 ·6H2 O/0.1 N HCl 0.7 ml) was added thereto to develop a color, and it was centrifuged followed by measurement of absorbance of a supernatant at 540 nm. The activity was indicated by an amount of hydroxamic acid generated per minute (1 U=1 μmol/min). The molar absorption coefficient was 600. Potassium aspartate was removed from the reaction solution to be used as a blank.
(§10) In measurement of the enzyme activity of AK, various concentrations of L-lysine were added to the enzyme reaction solution and the degree of inhibition by L-lysine was examined.
(§11) On the contrary, although the mutant AKIII's obtained this time had various degrees of desensitization, inhibition by L-lysine was desensitized in all of 14 species. […] The specific activity based on total protein, which might be affected by growth situations of cell and preparation of samples, was equal to or more than that of the wild type in almost all cases, and there was little problem of decrease in activity due to the introduction of mutation (Table 3). According to this fact, it was expected that an active center of AKIII was independent from a regulatory site by L-lysine with each other. In Table 3, the inhibition desensitization degree (%) refers to an AK activity in the presence of 100 mM of L-lysine compared with an AK activity in the absence of L-lysine in the reaction solution. The heat stability (%) refers to a ratio of activity maintenance after a treatment at 55° C. for 1.5 hour.

[7] = system: AKIII; assay: as above; assay type: biochemical, E. coli
Text: as §7, §8, §9, §10, §11

[8] = system: AKIII; assay: Heat stability of AKIII in vitro; assay type: biochemical, E. coli; conditions: ratio of activity maintenance after treatment at 55° C. for 1.5 hour
Text: as §11
Subsequently, the heat stability of the mutant enzymes was examined. When it is intended that an enzyme is improved to increase its activity, it is important that a created enzyme is maintained stably in cells. […]
Judging from results of investigation on the inactivation temperature of AKIII under various conditions, the ratio of activity maintenance after a treatment at 55° C. for 90 minutes was measured. […]

## NCCSC[C@H](N)C(=O)O [AEC, S-2-aminoethylcysteine]
[1]; Escherichia coli, W3110/pdapA1 strain, M9 agar, read-out: Allotment of addition in which growth was suppressed
  MIC: 30 mM (≈ 4930 µg/mL)
[1]; M9 agar, AEC 2 mM
  Growth of W3110/pdapA1: +
[1]; M9 agar, AEC 4 mM
  Growth of W3110/pdapA1: +
[1]; M9 agar, AEC 8 mM
  Growth of W3110/pdapA1: +
[1]; M9 agar, AEC 15 mM
  Growth of W3110/pdapA1: +
[1]; M9 agar, AEC 30 mM
  Growth of W3110/pdapA1: -
[1]; M9 agar, AEC 60 mM
  Growth of W3110/pdapA1: -
[1]; M9 agar, AEC 125 mM
  Growth of W3110/pdapA1: -
[1]; M9 agar, AEC 250 mM
  Growth of W3110/pdapA1: -
[1]; W3110/pdapA1
  Growth in minimal medium M9 to which AEC was added: suppressed in growth
[2]; Escherichia coli, read-out: Allotment of addition in which growth was suppressed
  MIC: 15 mM (≈ 2460 µg/mL)
[2]; AEC 2 mM
  Growth of W3110/pdapA2: +
[2]; AEC 4 mM
  Growth of W3110/pdapA2: +
[2]; AEC 8 mM
  Growth of W3110/pdapA2: +
[2]; AEC 15 mM
  Growth of W3110/pdapA2: -
[2]; AEC 30 mM
  Growth of W3110/pdapA2: -
[2]; AEC 60 mM
  Growth of W3110/pdapA2: -
[2]; AEC 125 mM
  Growth of W3110/pdapA2: -
[2]; AEC 250 mM
  Growth of W3110/pdapA2: -
[2]; W3110/pdapA2
  Growth in minimal medium M9 to which AEC was added: suppressed in growth
[3]
  MIC: 0.2 mM (≈ 32.8 µg/mL)
[3]; AEC 0.2 mM
  Growth of GT3/pLYSC1: -
[3]; AEC 0.4 mM
  Growth of GT3/pLYSC1: -
[3]; AEC 0.8 mM
  Growth of GT3/pLYSC1: -
[3]; AEC 1.5 mM
  Growth of GT3/pLYSC1: -
[3]; AEC 3 mM
  Growth of GT3/pLYSC1: -
[3]; AEC 6 mM
  Growth of GT3/pLYSC1: -
[3]; AEC 12 mM
  Growth of GT3/pLYSC1: -
[3]; AEC 25 mM
  Growth of GT3/pLYSC1: -
[3]; AEC 50 mM
  Growth of GT3/pLYSC1: -
[4]
  Allotment of addition up to which growth was not suppressed: 3 mM
[4]; AEC 0.2 mM
  Growth of GT3/pLYSC2: ±
[4]; AEC 0.4 mM
  Growth of GT3/pLYSC2: ±
[4]; AEC 0.8 mM
  Growth of GT3/pLYSC2: ±
[4]; AEC 1.5 mM
  Growth of GT3/pLYSC2: ±
[4]; AEC 3 mM
  Growth of GT3/pLYSC2: ±
[4]; AEC 6 mM
  Growth of GT3/pLYSC2: -
[4]; AEC 12 mM
  Growth of GT3/pLYSC2: -
[4]; AEC 25 mM
  Growth of GT3/pLYSC2: -
[4]; AEC 50 mM
  Growth of GT3/pLYSC2: -
[5]
  Growth in minimal medium M9 to which AEC was added: suppressed in growth

## NCCCC[C@H](N)C(=O)O [L-lysine]
[3]
  MIC: 0.2 mM (≈ 29.2 µg/mL)
[3]; GT3/pLYSC1
  Growth in minimal medium M9 with a considerable amount of L-lysine: suppressed in growth
[3]; L-lysine 0.2 mM
  Growth of GT3/pLYSC1: -
[3]; L-lysine 0.4 mM
  Growth of GT3/pLYSC1: -
[3]; L-lysine 0.8 mM
  Growth of GT3/pLYSC1: -
[3]; L-lysine 1.5 mM
  Growth of GT3/pLYSC1: -
[3]; L-lysine 3 mM
  Growth of GT3/pLYSC1: -
[3]; L-lysine 6 mM
  Growth of GT3/pLYSC1: -
[3]; L-lysine 12 mM
  Growth of GT3/pLYSC1: -
[3]; L-lysine 25 mM
  Growth of GT3/pLYSC1: -
[3]; L-lysine 50 mM
  Growth of GT3/pLYSC1: -
[3]; L-lysine 100 mM
  Growth of GT3/pLYSC1: -
[3]; L-lysine 200 mM
  Growth of GT3/pLYSC1: -
[4]; GT3/pLYSC2
  Growth in minimal medium M9 with a considerable amount of L-lysine: suppressed in growth
[4]
  Allotment of addition up to which growth was not suppressed: 100 mM
[4]; L-lysine 0.2 mM
  Growth of GT3/pLYSC2: +
[4]; L-lysine 0.4 mM
  Growth of GT3/pLYSC2: +
[4]; L-lysine 0.8 mM
  Growth of GT3/pLYSC2: +
[4]; L-lysine 1.5 mM
  Growth of GT3/pLYSC2: +
[4]; L-lysine 3 mM
  Growth of GT3/pLYSC2: +
[4]; L-lysine 6 mM
  Growth of GT3/pLYSC2: +
[4]; L-lysine 12 mM
  Growth of GT3/pLYSC2: +
[4]; L-lysine 25 mM
  Growth of GT3/pLYSC2: +
[4]; L-lysine 50 mM
  Growth of GT3/pLYSC2: +
[4]; L-lysine 100 mM
  Growth of GT3/pLYSC2: ±
[4]; L-lysine 200 mM
  Growth of GT3/pLYSC2: -
[6]
  IC50: ~450 µM
[6]; read-out: Inhibition of AKIII
  inhibition at 5000 µM: ~100%

B1: Wild type: wild type aspartokinase III of E. coli encoded by lysC, SEQ ID NO:8 (protein)
chain: MSEIVVSKFGGTSVADFDAMNRSADIVLSDANVRLVVLSASAGITNLLVALAEGLEPGERFEKLDAIRNIQFAILERLRYPNVIREEIERLLENITVLAEAAALATSPALTDELVSHGELMSTLLFVEILRERDVQAQWFDVRKVMRTNDRFGRAEPDIAALAELAALQLLPRLNEGLVITQGFIGSENKGRTTTLGRGGSDYTAALLAEALHASRVDIWTDVPGIYTTDPRVVSAAKRIDEIAFAEAAEMATFGAKVLHPATLLPAVRSDIPVFVGSSKDPRAGGTLVCNKTENPPLFRALALRRNQTLLTLHSLNMLHSRGFLAEVFGILARHNISVDLITTSEVSVALTLDTTGSTSTGDTLLTQSLLMELSALCRVEVEEGLALVALIGNDLSKACGVGKEVFGVLEPFNIRMICYGASSHNLCFLVPGEDAEQVVQKLHSNLFE
[7]; AK activity in the presence of 100 mM of L-lysine compared with AK activity in the absence of L-lysine
  Degree of desensitization of inhibition: 0%
[7]; AKIII, cell-free extract of GT3 transformants, 1 U=1 μmol/min
  Specific activity: 0.0247 U/mg protein
[7]; various concentrations of L-lysine, FIG. 6
  Inhibition of AKIII by L-lysine: strongly suffered inhibition by L-lysine
[8]
  Heat stability: 18%

— US5989875A, “Method of process for producing L-lysine by fermentation” (priority 1995, dated 1999)
